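Following 48 hours of exposure in 96-well plates, responses at five concentrations were used to interpolate endpoints linearly. Abbreviation: GI50, concentration required for 50% inhibition of growth.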 Activity calls are given as the source filed them. Cut-off read from the data, not from the text of the source: active = GI50 up to about 1.1 µM and inactive = higher.
Tests used:
Assay in all cases: inhibition of tumour cell growth, NCI panel, 48 h
ACHN = test system: ACHN
EKVX = test system: EKVX
SK-MEL-28 = test system: SK-MEL-28
HT-29 = test system: HT-29
SF-539 = test system: SF-539
HCT-15 = test system: HCT-15
CAKI-1 = test system: CAKI-1
Hs-578T = test system: Hs-578T
M14 = test system: M14
DU-145 = test system: DU-145
HCT-116 = test system: HCT-116
NCI-H226 = test system: NCI-H226
A498 = test system: A498
RXF 393 = test system: RXF 393
IGROV-1 = test system: IGROV-1
U-251 = test system: U-251
MOLT-4 = test system: MOLT-4
PC-3 = test system: PC-3
KM12 = test system: KM12
TK-10 = test system: TK-10
SNB-75 = test system: SNB-75
UACC-62 = test system: UACC-62
UO-31 = test system: UO-31
OVCAR-8 = test system: OVCAR-8
RPMI-8226 = test system: RPMI-8226
NCI/ADR-RES = test system: NCI/ADR-RES
HOP-62 = test system: HOP-62
SNB-19 = test system: SNB-19
OVCAR-3 = test system: OVCAR-3
MDA-MB-435 = test system: MDA-MB-435
MDA-MB-231 = test system: MDA-MB-231
NCI-H522 = test system: NCI-H522
MDA-N = test system: MDA-N
OVCAR-4 = test system: OVCAR-4
A549 = test system: A549
K562 = test system: K562
LOX IMVI = test system: LOX IMVI
Malme-3M = test system: Malme-3M
SF-268 = test system: SF-268
T47D = test system: T47D
COLO 205 = test system: COLO 205
NCI-H460 = test system: NCI-H460
SN12C = test system: SN12C
NCI-H23 = test system: NCI-H23
OVCAR-5 = test system: OVCAR-5
MCF7 = test system: MCF7
SF-295 = test system: SF-295
SW-620 = test system: SW-620
SR = test system: SR
CCRF-CEM = test system: CCRF-CEM
HL-60 = test system: HL-60
SK-MEL-5 = test system: SK-MEL-5
SK-OV-3 = test system: SK-OV-3
HCC 2998 = test system: HCC 2998
SK-MEL-2 = test system: SK-MEL-2

For `CC1=Nc2nc(Cl)cn2C(=O)C1(Cl)Cl`, the GI50 (ACHN) was > 10 µM (inactive), the GI50 (EKVX) was > 10 µM (inactive) and the GI50 (SK-MEL-28) was > 10 µM (inactive). For the same compound, the GI50 (HT-29) was > 10 µM (inactive), the GI50 (SF-539) was > 10 µM (inactive) and the GI50 (HCT-15) was > 10 µM. For the same compound, the GI50 (CAKI-1) was > 10 µM (inactive), the GI50 (Hs-578T) was > 10 µM (inactive) and the GI50 (M14) was > 10 µM (inactive). The GI50 (DU-145) was > 10 µM (inactive), the GI50 (HCT-116) was > 10 µM (inactive) and the GI50 (NCI-H226) was > 10 µM (inactive). For the same compound, the GI50 (A498) was > 10 µM (inactive), the GI50 (RXF 393) was > 10 µM (inactive) and the GI50 (IGROV-1) was > 10 µM (inactive). The GI50 (U-251) was > 10 µM (inactive), the GI50 (MOLT-4) was > 10 µM (inactive) and the GI50 (PC-3) was > 10 µM (inactive). For the same compound, the GI50 (KM12) was > 10 µM (inactive), the GI50 (TK-10) was > 10 µM (inactive) and the GI50 (SNB-75) was > 10 µM (inactive). The GI50 (UACC-62) was > 10 µM (inactive), the GI50 (UO-31) was > 10 µM (inactive) and the GI50 (OVCAR-8) was > 10 µM (inactive). For the same compound, the GI50 (RPMI-8226) was > 10 µM (inactive), the GI50 (NCI/ADR-RES) was > 10 µM (inactive) and the GI50 (HOP-62) was > 10 µM (inactive). The GI50 (SNB-19) was > 10 µM (inactive), the GI50 (OVCAR-3) was > 10 µM (inactive) and the GI50 (MDA-MB-435) was > 10 µM (inactive). The GI50 (MDA-MB-231) was > 10 µM (inactive), the GI50 (NCI-H522) was > 10 µM (inactive) and the GI50 (MDA-N) was > 10 µM (inactive). For the same compound, the GI50 (OVCAR-4) was > 10 µM (inactive), the GI50 (A549) was > 10 µM (inactive) and the GI50 (K562) was > 10 µM (inactive). The GI50 (LOX IMVI) was > 10 µM (inactive), the GI50 (Malme-3M) was > 10 µM (inactive) and the GI50 (SF-268) was > 10 µM (inactive). The GI50 (T47D) was > 10 µM (inactive), the GI50 (COLO 205) was > 10 µM (inactive) and the GI50 (NCI-H460) was > 10 µM (inactive). The GI50 (SN12C) was > 10 µM (inactive), the GI50 (NCI-H23) was > 10 µM (inactive) and the GI50 (OVCAR-5) was > 10 µM (inactive). For the same compound, the GI50 (MCF7) was > 10 µM (inactive), the GI50 (SF-295) was > 10 µM (inactive) and the GI50 (SW-620) was > 10 µM (inactive). For the same compound, the GI50 (SR) was > 10 µM (inactive), the GI50 (CCRF-CEM) was > 10 µM (inactive) and the GI50 (HL-60) was > 10 µM (inactive). For the same compound, the GI50 (SK-MEL-5) was > 10 µM (inactive), the GI50 (SK-OV-3) was > 10 µM (inactive) and the GI50 (HCC 2998) was > 10 µM (inactive). The GI50 (SK-MEL-2) was > 10 µM (inactive).
